Source: BindingDB's records for PubMed 39026645 (Tianjin University)

Target: T1, Polyphenol oxidase 4 (Agaricus bisporus, UniProt C7FF05)
T1 sequence (C7FF05 whole entry): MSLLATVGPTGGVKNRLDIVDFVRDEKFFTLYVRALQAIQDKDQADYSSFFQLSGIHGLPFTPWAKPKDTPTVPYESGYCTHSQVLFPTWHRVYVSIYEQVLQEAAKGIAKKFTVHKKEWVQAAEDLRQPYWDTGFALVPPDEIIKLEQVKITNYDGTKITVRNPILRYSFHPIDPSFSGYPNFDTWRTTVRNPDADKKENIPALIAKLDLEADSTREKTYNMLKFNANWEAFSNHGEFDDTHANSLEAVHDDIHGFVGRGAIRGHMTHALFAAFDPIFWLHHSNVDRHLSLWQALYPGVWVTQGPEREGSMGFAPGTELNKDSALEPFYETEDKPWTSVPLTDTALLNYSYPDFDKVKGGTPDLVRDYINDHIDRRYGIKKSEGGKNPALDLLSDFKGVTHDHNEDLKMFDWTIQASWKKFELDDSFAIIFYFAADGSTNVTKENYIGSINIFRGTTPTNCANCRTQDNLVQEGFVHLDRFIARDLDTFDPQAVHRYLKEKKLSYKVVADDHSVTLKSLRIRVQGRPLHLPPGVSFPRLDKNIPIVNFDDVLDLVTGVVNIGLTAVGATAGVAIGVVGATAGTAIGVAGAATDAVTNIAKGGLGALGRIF
Test: Inhibition of mushroom tyrosinase

IC50	SMILES
2.6 nM	COc1c(O[C@@H]2O[C@H](CO)[C@@H](O)[C@H](O)[C@H]2O)cc2occ(-c3ccc(O)cc3)c(=O)c2c1O [CHEBI:9428]
1.4 nM	COc1c(O)cc2occ(-c3ccc(O)cc3)c(=O)c2c1O [Tectorigenin]
